Results from patent US12624057B2, “Bisphosphonate quinolone conjugates and uses thereof” (BIOVINC, LLC, priority 2016, dated 2026).
Entries after “also recorded” stand apart in the source; their conditions may differ.

Tests used:
[1] = system: planktonic S. aureus strain ATCC-6538; assay: Antimicrobial susceptibility testing in acidic versus basic/physiological pH; format: cell-based, Staphylococcus aureus; conditions: acidic (pH 5) versus basic/physiological (pH 7.4)
Method: (§1) Antimicrobial susceptibility testing of BP-ciprofloxacin against planktonic cultures of S. aureus strain ATCC-6538 in acidic versus basic pH: This experimental setting was performed in the same manner as described previously for disc diffusion testing, but microbiological media was adjusted to pH 7.4 and pH 5 using KOH or HCL solution and measured using a universal pH-indicator (Merck, Poland).
as §1, with “6” for “BP-ciprofloxacin”, “physiological” for “basic”

[2] = system: biofilms of P. aeruginosa strain ATCC-15442; assay: Preformed biofilms on polystyrene, P. aeruginosa; format: cell-based, Pseudomonas aeruginosa; conditions: polystyrene substrate, tested range of concentrations
Method: Antimicrobial susceptibility testing of BP-ciprofloxacin against preformed biofilms of S. aureus strain ATCC-6538 and P. aeruginosa strain ATCC-15442: Strains cultured on appropriate agar plates (Columbia agar plate for S. aureus; MacConkey agar plate for P. aeruginosa) were transferred to liquid microbiological media and incubated for 24 h/37° C. under aerobic conditions. After incubation, strains were diluted to the density of 1 MF. The microbial dilutions were introduced to wells of 24-well plates containing HA discs as a substrate, or simply to polystyrene wells where the bottom surface of the wells served as the substrate for biofilm development. Strains were incubated at 37° C. for 4 hrs. Next, the microbe-containing solutions were removed from the wells. The surfaces, HA discs and polystyrene plates, were gently rinsed to leave adhered cells and to remove planktonic or loosely-bound microbes. Surfaces prepared in this manner were immersed in fresh TSB medium containing 0.24-125 mg/L of BP-ciprofloxacin conjugate. After 24 hrs of incubation at 37° C. the surfaces were rinsed using physiological saline solution and transferred to 1 mL of 0.5% saponin (Sigma-Aldrich, St Louis, MO). The surfaces were vortex-mixed vigorously for 1 minute to detach cells. Subsequently, all microbial suspensions were diluted 10 to 10^9 times. Each dilution ([…]) was cultured on the appropriate stable medium (MacConkey, Columbia for P. aeruginosa and S. aureus, respectively) and incubated at 37-C for 24 hours. After this time, the microbial colonies were counted and the number of cells forming biofilm was assessed. […]
Antimicrobial susceptibility testing of 6 against preformed biofilms of S. aureus strain ATCC-6538 and P. aeruginosa strain ATCC-15442: Strains cultured on appropriate agar plates (Columbia agar plate for S. aureus; MacConkey agar plate for P. aeruginosa) were transferred to liquid microbiological media and incubated for 24 hrs/37° C. under aerobic conditions. […] After this time, the microbial colonies were counted and the number of cells forming biofilm was assessed. […]

[3] = system: S. aureus ATCC6538 biofilms; assay: Survival of S. aureus biofilm on pretreated, rinsed HA discs; format: cell-based, Staphylococcus aureus; conditions: for times more active than ciprofloxacin alone in achieving complete bactericidal action: allowing for molecular mass; for ability to prevent biofilm formation on pretreated HA (in words): pretreated HA discs; for concentration that inhibited all biofilm growth: pretreated, rinsed HA discs
Method: HA discs incubated in DMSO or phosphate buffer served as control samples. Next, discs were rinsed 3 times with sterile water. After rinsing, 2 mL of 0.5 MF of. S. aureus ATCC6538 were introduced to wells containing HA discs as a substrate for biofilm development and biofilms were formed as before.

[4] = In vivo tolerability during the rat peri-implant osteomyelitis studies; set-up: species or system Sprague-Dawley rats; conditions: intraperitoneal
Source text: To determine appropriate dosing concentrations, we calculated approximate initial doses for the conjugate based on previous studies and pharmacokinetic data using similar target and release strategies and also rodents (Houghton, et al., Linking bisphosphonates to the free amino groups in fluoroquinolones: preparation of osteotropic prodrugs for the prevention of osteomyelitis. J Med Chem 2008; 51:6955-69; Morioka, et al., Design, synthesis, and biological evaluation of novel estradiol-bisphosphonate conjugates as bone-specific estrogens. Bioorg Med Chem 2010; 18:1143-8). We expected that increasing doses of 0.1, 1 and 10 mg/kg BP-ciprofloxacin molar equivalents will allow us to determine antimicrobial activity in 2 test animals per group based on sample size estimations and previous experience with the animal model (Freire, et al, Development of animal model for Aggregatibacter actinomycetemcomitans biofilm-mediated oral osteolytic infection: a preliminary study. J Periodontol 2011; 82:778-89). Animals were dosed via intraperitoneal injection under general anesthesia, and all compounds were constituted in sterile physiological injectable saline at appropriate pH. One week after pharmacotherapy, all animals were sacrificed and resection of peri-implant tissues was performed, and tissues were immediately homogenized and processed for quantitative assessment of microbial load. Animals were monitored throughout the study period for local or systemic adverse effects of pharmacotherapy.
To determine appropriate dosing concentrations, approximate initial doses were calculated for the conjugate based on previous studies and pharmacokinetic data using similar target and release strategies also in rodents.^13, 26 Increasing doses of 0.1, 1 and 10 mg/kg molar equivalents of 6 can allow for determination of antimicrobial activity in 2 test animals per group based on sample size estimations and previous experience with the animal model.^32 Animals were dosed via intraperitoneal injection under general anesthesia, and all compounds were constituted in sterile physiological injectable saline at appropriate pH.

[5] = system: Aggregatibacter actinomycetemcomitans biofilms on titanium implants; assay: Rat jawbone peri-implant osteomyelitis model, first animal experiment; format: in vivo, Sprague-Dawley rats; conditions: conjugate, 0.3 mg/kg ×3 over a week (0.9 mg/kg total)
[6] = 24 hrs of growth (Examples 5, 6)

SMILES	effect of pH on antimicrobial activity / concentration to reach MIC50 [1]	effect of pH on antimicrobial activity / concentration to reach MIC50 ([1]; listed as BP-ciprofloxacin)	MBIC50 [2]	MBIC90 [2]	MBIC50 ([2]; listed as BP-ciprofloxacin)	times more active than ciprofloxacin alone in achieving complete bactericidal action [3]	times more active than ciprofloxacin alone in achieving complete bactericidal action ([3]; listed as BP-ciprofloxacin)	ability to prevent biofilm formation on pretreated HA (in words) [3]	ability to prevent biofilm formation on pretreated HA (in words) ([3]; listed as BCC)	concentration that inhibited all biofilm growth ([3]; 24 hrs of growth (Example 1)) [µg/mL]	concentration that inhibited all biofilm growth [3, 6] [µg/mL]	tolerability / adverse events ([4]; first animal experiment, listed as BCC)	tolerability / adverse events ([4]; first animal experiment, listed as BP-ciprofloxacin)	tolerability / adverse events ([4]; second animal experiment)	tolerability / adverse events ([4]; second animal experiment, listed as BCC)	bacterial killing [5] [%]	recovery of bacteria (in words) [5]	recovery of bacteria (in words) ([5]; listed as BP-ciprofloxacin)
O=C(O)c1cn(C2CC2)c2cc(N3CCN(C(=O)Oc4ccc(CC(P(=O)(O)O)P(=O)(O)O)cc4)CC3)c(F)cc2c1=O [Compound 6, 1-cyclopropyl-7-(4-((4-(2,2-diphosphonoethyl)phenoxy)carbonyl)piperazin-1-yl)-6-fluoro-4-oxo-1,4-dihydroquinoline-3-carboxylic acid]	half the conjugate concentration; also recorded: slightly improved profile in acidic conditions	half the conjugate concentration; also recorded: improved bactericidal profile in acidic	No MBIC50 was observed	no MBIC90 was observed for either pathogen	no MBIC^50 was observed	20	20	superior antimicrobial activity	inhibited	10	10	no potential systemic toxicity or adverse effects	safety and efficacy was demonstrated in vivo	no signs of gross tolerability issues during therapy	tolerated treatment and pharmacotherapy well with no adverse events	100	no recoverable bacteria	no recovery of Aa; also recorded: no recoverable bacteria
O=C(O)c1cn(C2CC2)c2cc(N3CCNCC3)c(F)cc2c1=O [ciprofloxacin, reference compound]	–	–	–	–	–	–	–	–	–	100	100	–	–	–	–	–	–	–
